Data: patent publication US20030171575A1, “Process for improving sucralose purity and yield” (priority 2002, published 2003)

Legend:
[1] = Blinded paired palatability panel, consumer product such as ice cream with 150 ppm sucralose (Example 5); format: in vivo, panelists; conditions: 150 ppm sucralose in consumer product such as ice cream, served chilled
Protocol: Purified sucralose is prepared by the process of solvent-solvent extraction and sequential recrystallizations as shown in Examples 1 and 2 of the present invention. Next, sucralose is used to enhance the palatability of a consumer product.
The sucralose is added to one group (1G) of two groups (1G and 2G) of a consumer product such as ice cream to yield final levels of 150 ppm sucralose.
Panelists are selected from the general population, and no specific demographic parameters are utilized in recruiting the panelists. The two groups of samples are prepared and served chilled. Portions are dispensed into individual servings for the panelists. Samples are presented to panelists in a blinded manner (samples are identified only by a random digit label). Each panelist receives two samples for tasting, and panelists are given a randomized sequence in which to taste the samples. Thus, the order of tasting is completely random. In each set of two samples, one sample is from G1 and the other sample is from G2. Panelists are asked to select the sample that tastes the most palatable, record that result and record how confident they are of the result. […]
Statistical significance of the correctness of the scores (i.e., panelist ability to detect the most palatable sample) is determined by use of a statistical table that correlates the number of correct responses with a p value.

[2] = Blinded three-sample taste panel, model soft drink with 10 ppm sucralose (Example 7); format: in vivo, panelists; conditions: 10 ppm sucralose in model soft drink (0.14% citric acid, 0.04% trisodium phosphate, pH 3.2)
Protocol: Purified sucralose is prepared by the process of solvent—solvent extraction and sequential recrystallizations as shown in Examples 1 and 2 of the present invention. Next, the effect on palatability of a beverage by purified sucralose is tested.
(§1) Sucralose solutions are prepared by adding crystalline sucralose to a model soft drink composition that contains 0.14% citric acid and 0.04% trisodium phosphate. The pH of this composition is 3.2. Crystalline sucralose compositions are added to the soft drink composition to yield final levels of 10 ppm sucralose.
A model soft drink composition without sucralose is also prepared.
(§2) Panelists are selected from the general population, and no specific demographic parameters are utilized in recruiting the panelists. The product samples are prepared and served chilled. Portions are dispensed into individual servings for the panelists. Samples are presented to panelists in a blinded manner (samples are identified only by a random digit label). Each panelist receives three samples for tasting, and panelists are given a randomized sequence in which to taste the samples. […]
Statistical significance of the correctness of the scores (i.e., panelist ability to detect the sample that is different from the other two) is determined by use of a statistical table that correlates the number of correct responses with a p value.

[3] = background statement; cited from earlier work
[4] = Blinded three-sample taste panel, model soft drink with 100 ppm sucralose (Example 3); format: in vivo, panelists; conditions: 100 ppm sucralose in model soft drink (0.14% citric acid, 0.04% trisodium phosphate, pH 3.2), against samples without sucralose
Protocol: Purified sucralose is prepared by the process of solvent-solvent extraction and sequential recrystallizations as shown in Examples 1 and 2 of the present invention. Next the taste of the resultant composition is tested in a beverage.
as §1, with “100 parts per million (ppm).” for “10 ppm sucralose.”
as §2, with “tasting (one sample comprising 100 ppm sucralose and two samples not comprising sucralose),” for “tasting,”
Statistical significance of the correctness of the scores (i.e. panelist ability to detect the sample that is different from the other two) is determined by use of a statistical table that correlates the number of correct responses with a p value.

For `OC[C@H]1O[C@H](O[C@]2(CCl)O[C@H](CCl)[C@@H](O)[C@@H]2O)[C@H](O)[C@@H](O)[C@H]1Cl` [Sucralose, 4,1′,6′-trichloro-4,1′,6′-trideoxygalactosucrose], the “palatability against samples not comprising sucralose” value [1] is given as “more palatable”, the “palatability against samples not comprising sucralose” value [2] is given as “more palatable” and the “sweetness intensity compared with sucrose” value [3] is given as “several hundred times”. For the same compound, the “palatability of the odd sample (comments of panelists choosing the correct sample)” value [4] was “increased palatability”.
